Experimental data as given in patent publication US20240272101A1, “Direct Sampling from Phase-Separated Sample for Hydrophobicity Assessment” (DH Technologies Development Pte. Ltd., priority 2021, published 2024).

Legend:
[1] = known values, quoted for comparison; cited from earlier work
[2] = mass spectrometric hydrophobicity assessment: acoustic droplet ejection from water/pentanol two-phase system versus single-phase aqueous solution; type: physicochemical; settings: MRM signal; 25 μL pentanol added to 25 μL water, 1 μg/mL analyte; FIGS. 7A and 7B
Protocol: A two-phase system was prepared by adding […] of pentanol to 25 μL of an aqueous solution of dextromethorphan. A SCIEX Triple Quad 6500+ mass spectrometer system having an acoustic droplet dispenser (shown schematically in FIG. 4) equipped with a two-layer acoustic calibration was employed to eject a plurality of droplets from the two-phase system into an OPI of the mass spectrometer for observing an MRM transition of the target analyte. Although in this example, a single MRM transition was monitored, in other cases, multiple MRM transitions of the target analyte can be monitored.
A single-phase aqueous sample was prepared as 1 μg/ml of dextromethorphan in 25 μL of water. A two-phase system was then formed by adding 25 μL of pentanol to 25 μL water in which 0.025 μg was mixed.
The above mass spectrometer was then utilized to obtain a series of measurements of the 272.2→215.1 MRM transition of the target analyte via sampling the single-phase solution and the two-phase system.
By way of comparison, a single-phase aqueous sample of adenosine was prepared by mixing adenosine with 25 μL of water to prepare a single-phase aqueous solution having a concentration of 1 μg/mL of adenosine. A two-phase system was prepared by adding 25 μL of pentanol to 25 μL aqueous single-phase system of adenosine having a concentration of 1 μg/mL adenosine. […]

Row | Compound | log P [1] | relative ratio of the two-phase sampling signal versus the aqueous sampling signal [2]
1 | Nc1ncnc2c1ncn2[C@@H]1O[C@H](CO)[C@@H](O)[C@H]1O [adenosine] | −1.05 | less than that associated with dextromethorphan
2 | COc1ccc2c(c1)[C@]13CCCC[C@@H]1[C@H](C2)N(C)CC3 [dextromethorphan] | +3.75 | –
